Converted amounts (≈) assume the structure as drawn.
Assays:
B. subtilis 168 [1] = assay: fitness (endpoint OD595 vs no drug) (fraction); higher = more growth
Procedure, shortened: (§1)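 Bacterial growth was followed in 384-well plates seeded at OD595 0.01, with 30 µl per well, or 55 µl for S. pneumoniae, in TSB, LB Lennox or CY at 37 °C. OD595 was read every 30 min for 14 h, and each reading had the first reading subtracted as background. Fitness is the background-corrected optical density at entry into stationary phase divided by the robust mean of the no-drug control wells. This ratio is capped at 1.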

S. aureus DSM 20231 [2] = assay: as above
Procedure, shortened: as §1

S. aureus Newman [3] = assay: as above
Procedure, shortened: as §1

S. pneumoniae D39V [4] = assay: as above
Procedure, shortened: as §1

B. subtilis 168 [5] = assay: Bliss interaction score (quartile over a dose matrix) (fitness difference); higher = more antagonism (negative = synergy)
Procedure, shortened: (§2)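 Growth was read as OD595 when cultures entered stationary phase, and each value was divided by the plate's robust no-drug mean and capped at 1. This normalised ratio is the fitness value, and fitness for each single drug came from the combination data. The Bliss score subtracts the expected fitness, taken as the product, from the observed fitness and is given as quartiles across technical, biological and donor/recipient replicates.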

S. aureus DSM 20231 [6] = assay: as above
Procedure, shortened: as §2

S. aureus Newman [7] = assay: as above
Procedure, shortened: as §2

S. pneumoniae D39V [8] = assay: as above
Procedure, shortened: as §2

B. subtilis 168 [9] = system: B. subtilis 168
S. aureus DSM 20231 [10] = system: S. aureus DSM 20231
S. aureus Newman [11] = system: S. aureus Newman
S. pneumoniae D39V [12] = system: S. pneumoniae D39V
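Throughout, for Bliss interaction score (quartile over a dose matrix): first quartile when negative (synergy) and third quartile when positive (antagonism).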

CN(N=O)C(=O)N[C@@H](C=O)[C@@H](O)[C@H](O)[C@H](O)CO [Streptozotocin] + CC1=C\[C@@H](O)CC(=O)Cc2nc(co2)C(=O)N2CCC=C2C(=O)O[C@H](C(C)C)[C@H](C)/C=C/C(=O)NC\C=C\1 [Virginiamycin M1]
fitness, one replicate
Conditions	first compound 0.15 µg/mL	first compound 0.3 µg/mL	first compound 0.6 µg/mL	first compound 1.2 µg/mL	first compound 2.4 µg/mL	first compound 4.8 µg/mL
B. subtilis 168 [1], partner 0.0625 µg/mL	≥ 1	0.975	0.991	–	–	–
B. subtilis 168 [1], partner 0.125 µg/mL	0.949	0.92	0.944	–	–	–
B. subtilis 168 [1], partner 0.25 µg/mL	≥ 1	≥ 1	0.958	–	–	–
S. aureus DSM 20231 [2], partner 0.5 µg/mL	0.616	0.686	0.581	–	–	–
S. aureus DSM 20231 [2], partner 1 µg/mL	0.61	0.69	0.667	–	–	–
S. aureus Newman [3], partner 0.0625 µg/mL	0.843	0.677	0.491	–	–	–
S. aureus Newman [3], partner 0.125 µg/mL	0.831	0.682	0.504	–	–	–
S. aureus Newman [3], partner 0.25 µg/mL	0.822	0.661	0.53	–	–	–
S. aureus Newman [3], partner 0.5 µg/mL	0.77	0.639	0.55	–	–	–
S. aureus Newman [3], partner 1 µg/mL	0.765	0.672	0.517	–	–	–
S. aureus Newman [3], partner 2 µg/mL	0.748	0.629	0.477	–	–	–
S. pneumoniae D39V [4], partner 0.15 µg/mL	–	–	–	0.913	0.94	0.88
S. pneumoniae D39V [4], partner 0.3 µg/mL	–	–	–	0.848	0.93	0.925

fitness
Conditions	first compound 0.15 µg/mL	first compound 0.3 µg/mL	first compound 0.6 µg/mL	first compound 1.2 µg/mL	first compound 2.4 µg/mL	first compound 4.8 µg/mL
S. aureus DSM 20231 [2], partner 0.0625 µg/mL	0.844	0.791	0.66	–	–	–
S. aureus DSM 20231 [2], partner 0.125 µg/mL	0.88	0.83	0.714	–	–	–
S. aureus DSM 20231 [2], partner 0.25 µg/mL	0.861	0.753	0.681	–	–	–
S. pneumoniae D39V [4], partner 0.5 µg/mL	–	–	–	0.985	0.99	0.981
S. pneumoniae D39V [4], partner 1 µg/mL	–	–	–	0.944	0.966	0.968
S. pneumoniae D39V [4], partner 2 µg/mL	–	–	–	0.935	0.939	0.911

Conditions	Bliss interaction score
B. subtilis 168 [5]	0.0477
S. aureus DSM 20231 [6]	-0.0415
S. aureus Newman [7]	0.0262
S. pneumoniae D39V [8]	-0.0403

Cc1cc(NS(=O)(=O)c2ccc(N)cc2)no1 [Sulfamethoxazol]
Conditions	MIC [µg/mL]
B. subtilis 168 [9]	> 16
S. aureus DSM 20231 [10]	> 16
S. aureus Newman [11]	> 16
S. pneumoniae D39V [12]	16 (≈ 63.2 µM)

fitness
Conditions	B. subtilis 168 [1]	S. aureus DSM 20231 [2]	S. aureus Newman [3]	S. pneumoniae D39V [4]
1 µg/mL	0.975	0.976	0.968	0.954
2 µg/mL	0.948	0.946	0.984	0.984
4 µg/mL	0.915	0.943	0.978	0.987

Cc1cc(NS(=O)(=O)c2ccc(N)cc2)no1 [Sulfamethoxazol] + CC1=C\[C@@H](O)CC(=O)Cc2nc(co2)C(=O)N2CCC=C2C(=O)O[C@H](C(C)C)[C@H](C)/C=C/C(=O)NC\C=C\1 [Virginiamycin M1]
one replicate
Conditions	fitness
B. subtilis 168 [1], first compound 0.5 µg/mL, partner 0.0625 µg/mL	0.982
B. subtilis 168 [1], first compound 0.5 µg/mL, partner 0.125 µg/mL	0.928
B. subtilis 168 [1], first compound 0.5 µg/mL, partner 0.25 µg/mL	≥ 1
S. aureus DSM 20231 [2], first compound 1 µg/mL, partner 0.5 µg/mL	0.88
S. aureus DSM 20231 [2], first compound 1 µg/mL, partner 1 µg/mL	0.709
S. aureus DSM 20231 [2], first compound 2 µg/mL, partner 0.5 µg/mL	0.915
S. aureus DSM 20231 [2], first compound 2 µg/mL, partner 1 µg/mL	0.679
S. aureus DSM 20231 [2], first compound 4 µg/mL, partner 0.5 µg/mL	0.797
S. aureus DSM 20231 [2], first compound 4 µg/mL, partner 1 µg/mL	0.8
S. aureus Newman [3], first compound 1 µg/mL, partner 0.5 µg/mL	0.873
S. aureus Newman [3], first compound 1 µg/mL, partner 1 µg/mL	0.869
S. aureus Newman [3], first compound 1 µg/mL, partner 2 µg/mL	0.841
S. aureus Newman [3], first compound 2 µg/mL, partner 0.5 µg/mL	0.911
S. aureus Newman [3], first compound 2 µg/mL, partner 1 µg/mL	0.925
S. aureus Newman [3], first compound 2 µg/mL, partner 2 µg/mL	0.809
S. aureus Newman [3], first compound 4 µg/mL, partner 0.5 µg/mL	0.956
S. aureus Newman [3], first compound 4 µg/mL, partner 1 µg/mL	0.908
S. aureus Newman [3], first compound 4 µg/mL, partner 2 µg/mL	0.839
S. aureus Newman [3], first compound 8 µg/mL, partner 0.0625 µg/mL	0.905
S. aureus Newman [3], first compound 8 µg/mL, partner 0.125 µg/mL	0.921
S. aureus Newman [3], first compound 8 µg/mL, partner 0.25 µg/mL	0.945
S. pneumoniae D39V [4], first compound 1 µg/mL, partner 0.15 µg/mL	0.905
S. pneumoniae D39V [4], first compound 1 µg/mL, partner 0.3 µg/mL	0.895
S. pneumoniae D39V [4], first compound 2 µg/mL, partner 0.15 µg/mL	0.923
S. pneumoniae D39V [4], first compound 2 µg/mL, partner 0.3 µg/mL	0.902
S. pneumoniae D39V [4], first compound 4 µg/mL, partner 0.15 µg/mL	0.92
S. pneumoniae D39V [4], first compound 4 µg/mL, partner 0.3 µg/mL	0.913

fitness
Conditions	first compound 1 µg/mL	first compound 2 µg/mL	first compound 4 µg/mL
B. subtilis 168 [1], partner 0.0625 µg/mL	0.887	0.905	0.901
B. subtilis 168 [1], partner 0.125 µg/mL	0.878	0.876	0.901
B. subtilis 168 [1], partner 0.25 µg/mL	0.983	0.919	0.993
S. aureus DSM 20231 [2], partner 0.0625 µg/mL	≥ 1	≥ 1	0.964
S. aureus DSM 20231 [2], partner 0.125 µg/mL	≥ 1	0.995	0.955
S. aureus DSM 20231 [2], partner 0.25 µg/mL	0.944	0.971	0.95
S. aureus Newman [3], partner 0.0625 µg/mL	≥ 1	≥ 1	≥ 1
S. aureus Newman [3], partner 0.125 µg/mL	≥ 1	≥ 1	≥ 1
S. aureus Newman [3], partner 0.25 µg/mL	≥ 1	≥ 1	≥ 1
S. pneumoniae D39V [4], partner 0.5 µg/mL	0.992	0.99	0.928
S. pneumoniae D39V [4], partner 1 µg/mL	0.988	0.986	0.917
S. pneumoniae D39V [4], partner 2 µg/mL	0.906	0.93	0.925

Conditions	Bliss interaction score
B. subtilis 168 [5]	0.0577
S. aureus DSM 20231 [6]	0.0829
S. aureus Newman [7]	0.0283
S. pneumoniae D39V [8]	-0.05

CC[C@H]1OC(=O)[C@H](C)C(=O)[C@H](C)[C@@H](O[C@@H]2O[C@H](C)C[C@H](N(C)C)[C@H]2O)[C@](C)(OC)C[C@@H](C)C(=O)[C@H](C)[C@H]2N(CCCCn3cnc(-c4cccnc4)c3)C(=O)O[C@]12C [Telithromycin]
Conditions	MIC [µg/mL]
S. aureus DSM 20231 [10]	0.15 (≈ 0.185 µM)
S. aureus Newman [11]	0.15 (≈ 0.185 µM)
S. pneumoniae D39V [12]	0.04 (≈ 0.0493 µM)

Oc1cc(Cl)ccc1Oc1ccc(Cl)cc1Cl [Triclosan]
Conditions	MIC [µg/mL]
S. aureus DSM 20231 [10]	0.08 (≈ 0.276 µM)
S. pneumoniae D39V [12]	16 (≈ 55.3 µM)

CC1=C\[C@@H](O)CC(=O)Cc2nc(co2)C(=O)N2CCC=C2C(=O)O[C@H](C(C)C)[C@H](C)/C=C/C(=O)NC\C=C\1 [Virginiamycin M1]
Conditions	MIC [µg/mL]
B. subtilis 168 [9]	0.5 (≈ 0.951 µM)
S. aureus Newman [11]	2 (≈ 3.81 µM)
S. pneumoniae D39V [12]	4 (≈ 7.61 µM)

fitness
Conditions	0.0625 µg/mL	0.125 µg/mL	0.25 µg/mL	0.5 µg/mL	1 µg/mL	2 µg/mL
B. subtilis 168 [1]	0.956	0.943	0.959	–	–	–
S. aureus DSM 20231 [2]	0.994	≥ 1	≥ 1	–	–	–
S. aureus Newman [3]	0.989	1	≥ 1	–	–	–
S. pneumoniae D39V [4]	–	–	–	≥ 1	0.997	0.994

From the supplement of paper PMC10627819
